Experiments:
human AT1 receptor = target: T1, human AT1 receptor (Homo sapiens, UniProt P30556); assay: AT1 radioligand binding assay (Assay 1); details: displacement of [Eu]AngII, membranes of CHO-K1 cells expressing human AT1 receptor; read-out: pKi at the AT1 receptor (converted)
T1 construct: expressed in transfected cells; membranes
T1 sequence (P30556 1-359): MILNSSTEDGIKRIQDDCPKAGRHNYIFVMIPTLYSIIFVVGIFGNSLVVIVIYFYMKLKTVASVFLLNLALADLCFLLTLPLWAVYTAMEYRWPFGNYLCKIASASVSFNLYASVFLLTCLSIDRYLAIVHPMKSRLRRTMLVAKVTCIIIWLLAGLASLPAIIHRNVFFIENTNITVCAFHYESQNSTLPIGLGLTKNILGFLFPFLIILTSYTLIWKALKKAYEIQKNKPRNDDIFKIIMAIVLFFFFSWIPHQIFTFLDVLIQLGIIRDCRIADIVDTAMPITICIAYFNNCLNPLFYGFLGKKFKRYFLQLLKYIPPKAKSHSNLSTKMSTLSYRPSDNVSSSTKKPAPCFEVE
Protocol: These in vitro assays were used to assess the ability of test compounds to bind to the AT1 and the AT2 receptors.
Chinese hamster ovary (CHO-K1) derived cell lines stably expressing the cloned human AT1 or AT2 receptors, respectively, were grown in HAM's-F12 medium supplemented with 10% fetal bovine serum, 10 μg/ml penicillin/streptomycin, and 500 μg/ml geneticin in a 5% CO2 humidified incubator at 37° C. AT2 receptor expressing cells were grown in the additional presence of 100 nM PD123,319 (AT2 antagonist). When cultures reached 80-95% confluence, the cells were washed thoroughly in PBS and lifted with 5 mM EDTA. Cells were pelleted by centrifugation and snap frozen in MeOH-dry ice and stored at −80° C. until further use.
For membrane preparation, cell pellets were resuspended in lysis buffer (25 mM Tris/HCl pH 7.5 at 4° C., 1 mM EDTA, and one tablet of Complete Protease Inhibitor Cocktail Tablets with 2 mM EDTA per 50 mL buffer (Roche cat. #1697498, Roche Molecular Biochemicals, Indianapolis, Ind.)) and homogenized using a tight-fitting Dounce glass homogenizer (10 strokes) on ice. The homogenate was centrifuged at 1000×g, the supernatant was collected and centrifuged at 20,000×g. […] Protein concentration of the membrane suspension was determined by the method described in Bradford (1976) Anal Biochem. 72:248-54. […]

NEP enzyme = target: T2, NEP enzyme (Homo sapiens, UniProt P08473); assay: In vitro NEP enzyme inhibition assay (Assay 2); format: biochemical; details: fluorogenic peptide substrate, room temperature; read-out: pIC50 for the NEP enzyme (converted)
T2 construct: purchased R&D Systems, Minneapolis, Minn; 1182-ZN
T2 sequence (P08473 52-750 limits assumed): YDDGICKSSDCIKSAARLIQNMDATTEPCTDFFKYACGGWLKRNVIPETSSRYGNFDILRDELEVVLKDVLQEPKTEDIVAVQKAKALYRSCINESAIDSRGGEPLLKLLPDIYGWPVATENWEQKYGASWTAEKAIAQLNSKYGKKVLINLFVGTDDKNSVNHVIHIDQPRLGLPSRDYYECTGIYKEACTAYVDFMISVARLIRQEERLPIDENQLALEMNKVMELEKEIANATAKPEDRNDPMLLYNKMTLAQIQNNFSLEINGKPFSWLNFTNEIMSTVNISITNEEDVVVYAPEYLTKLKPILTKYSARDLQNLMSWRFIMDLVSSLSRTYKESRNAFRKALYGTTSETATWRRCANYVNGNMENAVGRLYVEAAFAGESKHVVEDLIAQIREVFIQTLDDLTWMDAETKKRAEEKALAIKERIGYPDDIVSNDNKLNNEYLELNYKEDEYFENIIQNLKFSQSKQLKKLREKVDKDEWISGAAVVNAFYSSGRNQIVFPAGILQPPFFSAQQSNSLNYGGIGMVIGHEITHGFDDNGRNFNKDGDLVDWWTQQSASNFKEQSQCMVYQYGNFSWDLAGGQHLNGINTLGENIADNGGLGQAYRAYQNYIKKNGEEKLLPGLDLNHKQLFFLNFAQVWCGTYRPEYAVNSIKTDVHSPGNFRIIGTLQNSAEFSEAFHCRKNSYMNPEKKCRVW
Protocol: The inhibitory activities of compounds at human and rat NEP and human ACE were determined using in vitro assays as described below.
Rat NEP was prepared from the kidneys of adult Sprague Dawley rats. Whole kidneys were washed in cold PBS and brought up in ice-cold lysis buffer (1% Triton X-114, 150 mM NaCl, 50 mM Tris pH 7.5; Bordier (1981) J. Biol. Chem. 256:1604-1607) in a ratio of 5 mL of buffer for every gram of kidney. Samples were homogenized using a polytron hand held tissue grinder on ice. Homogenates were centrifuged at 1000×g in a swinging bucket rotor for 5 minutes at 3° C. The pellet was resuspended in 20 mL of ice cold lysis buffer and incubated on ice for 30 minutes. […] Protein concentrations were quantitated using a BCA detection system with BSA as a standard. […]
The assays were performed in 384-well white opaque plates at room temperature using the respective fluorogenic peptides at a concentration of 10 μM in Assay Buffer (50 mM Tris/HCl at 25° C., 100 mM NaCl, 0.01% Tween-20, 1 μM Zn, 0.025% BSA). […] The rat NEP enzyme preparation was used at a concentration that yielded quantitative proteolysis of 3 μM of Mca-RRL within 20 minutes at room temperature. […]
Plates were read on a fluorometer with excitation and emission wavelengths set to 320 nm and 405 nm, respectively. […]

CCCCc1nc(Cl)c(CO)n1Cc1ccc(-c2ccccc2S(=O)(=O)NC(=O)CNC(=O)C(Cc2ccccc2)C(=O)NO)cc1 (centres unmarked) [Example 1, 2-Benzyl-N-{2-[4′-(2-butyl-4-chloro-5-hydroxymethylimidazol-1-ylmethyl)biphenyl-2-sulfonylamino]-2-oxoethyl}-N′-hydroxymalonamide.(C2HF3O2)]
Ki (human AT1 receptor): < 100 nM | IC50 (NEP enzyme): ≤ 100 nM
